Data taken from paper PMC6541611, “The UbiX flavin prenyltransferase reaction mechanism resembles class I terpene cyclase chemistry” (Nature Communications, 2019).
Where two headings read alike, the source gives them in different places.

How the values were obtained:
EcUbiX = biological target: T1, EcUbiX (Escherichia coli, UniProt P0AG03); experiment: UV-Vis single turnover; type: biochemical
T1 construct: gene ubiX
T1 sequence (P0AG03 1-189): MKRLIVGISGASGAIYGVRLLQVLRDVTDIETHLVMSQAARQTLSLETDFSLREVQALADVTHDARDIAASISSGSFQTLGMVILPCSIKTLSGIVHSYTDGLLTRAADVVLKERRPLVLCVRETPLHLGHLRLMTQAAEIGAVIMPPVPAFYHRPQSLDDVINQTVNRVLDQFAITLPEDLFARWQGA

AnUbiX [1] = biological target: T2, AnUbiX (Aspergillus niger, UniProt A3F715); experiment: UV-Vis single turnover; type: biochemical
T2 construct: gene PAD1
T2 sequence (A3F715 1-227): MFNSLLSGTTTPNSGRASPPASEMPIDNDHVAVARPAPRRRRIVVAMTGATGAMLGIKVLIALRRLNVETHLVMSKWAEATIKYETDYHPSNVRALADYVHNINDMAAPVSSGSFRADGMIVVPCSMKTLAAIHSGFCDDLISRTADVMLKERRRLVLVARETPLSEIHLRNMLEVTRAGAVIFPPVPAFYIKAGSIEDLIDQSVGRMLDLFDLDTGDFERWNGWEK

AnUbiX [2] = biological target: T2, AnUbiX; experiment: crystal structure; type: binding

CC(C)=CCOP(=O)(O)O [DMAP]
UV-Vis single turnover (EcUbiX): AnUbiX and EcUbiX appear to catalyse the prenyltransferase step with DMAP | UV-Vis single turnover (AnUbiX [1]): Crucially, DMAP incubation does affect the resulting FMN spectrum

Cc1cc2nc3c(=O)[nH]c(=O)nc-3n(C[C@H](O)[C@H](O)[C@H](O)COP(=O)(O)O)c2cc1C [FMN]
crystal structure (AnUbiX [2]): The crystal structure of AnUbiX in complex with FMN and DMAPP

CC(C)=CCOP(=O)(O)OP(=O)(O)O [DMAPP]
UV-Vis single turnover (EcUbiX; 2 mM DMAPP, FMNH2, pH 8, prFMN formed): is only able to catalyse DMAPP-specific prFMNH2 formation under the conditions tested | crystal structure (AnUbiX [2]; co-purified, no exogenous DMAPP added, with oxidised FMN, pH 6.2): electron density directly located above the oxidised FMN that corresponds to a bound DMAPP
